The NIST ThermoML archive (doi:10.1016/j.fluid.2015.10.026)

Details: Liquid, Brillouin light scattering

CCC(C)(C)OC [2-methoxy-2-methylbutane]
speed of sound [m/s]
Details	293.15 K	303.15 K	313.15 K	323.15 K	333.15 K	343.15 K	353.15 K	363.15 K
0 kPa	1133.3	–	–	–	–	–	–	–
10 kPa	–	1089.4	1046.4	–	–	–	–	–
20 kPa	–	–	–	1004.2	962.62	–	–	–
40 kPa	–	–	–	–	–	921.56	–	–
60 kPa	–	–	–	–	–	–	880.86	–
90 kPa	–	–	–	–	–	–	–	840.4
1000 kPa	1139.7	1099.1	1058.3	1017.4	976.26	934.97	893.5	851.87
2500 kPa	1149	1109.3	1069.4	1029.4	989.25	948.94	908.48	867.87
4000 kPa	1158.3	1119.3	1080.3	1041.1	1001.8	962.37	922.83	883.16
5500 kPa	1167.7	1129.3	1091	1052.5	1013.9	975.26	936.54	–
7000 kPa	1177.2	1139.3	1101.4	1063.5	1025.6	987.61	949.61	–
8500 kPa	1186.7	1149.2	1111.7	1074.2	1036.8	999.41	962.05	–
10000 kPa	1196.4	1159	1121.8	1084.6	1047.6	1010.7	973.86	–
